Assay [1] deals with T1, Neuropeptide Y receptor type 1 (Homo sapiens, UniProt P25929).
T1 sequence (P25929 whole entry): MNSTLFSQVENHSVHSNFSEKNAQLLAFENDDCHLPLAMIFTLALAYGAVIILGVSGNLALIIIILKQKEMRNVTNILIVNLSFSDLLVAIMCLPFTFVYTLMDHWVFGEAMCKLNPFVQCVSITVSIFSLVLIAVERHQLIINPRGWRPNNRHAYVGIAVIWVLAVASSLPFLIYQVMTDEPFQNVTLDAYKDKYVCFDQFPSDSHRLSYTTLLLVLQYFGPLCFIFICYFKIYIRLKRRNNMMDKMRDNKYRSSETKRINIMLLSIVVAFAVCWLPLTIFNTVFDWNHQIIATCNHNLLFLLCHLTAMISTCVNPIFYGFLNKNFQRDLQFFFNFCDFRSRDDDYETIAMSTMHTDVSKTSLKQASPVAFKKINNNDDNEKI
The assay is described as follows: Human Neuropeptide Y1 receptor binding affinity.

For assay [2], the target named is T2, Neuropeptide Y receptor type 5 (Homo sapiens, UniProt Q15761).
T2 sequence (Q15761 whole entry): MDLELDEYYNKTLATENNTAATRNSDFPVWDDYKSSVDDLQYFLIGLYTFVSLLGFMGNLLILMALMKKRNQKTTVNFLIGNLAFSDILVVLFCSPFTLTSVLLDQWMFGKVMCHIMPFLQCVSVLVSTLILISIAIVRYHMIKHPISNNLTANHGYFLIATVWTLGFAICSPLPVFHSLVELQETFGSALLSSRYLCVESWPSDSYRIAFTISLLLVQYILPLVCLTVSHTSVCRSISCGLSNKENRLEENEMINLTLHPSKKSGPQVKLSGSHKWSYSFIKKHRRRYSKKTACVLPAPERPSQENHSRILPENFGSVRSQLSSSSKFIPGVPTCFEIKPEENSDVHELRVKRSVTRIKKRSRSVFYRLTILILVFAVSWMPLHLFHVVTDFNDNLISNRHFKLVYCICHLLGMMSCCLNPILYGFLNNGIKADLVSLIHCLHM
Description: Human Neuropeptide Y5 receptor binding affinity.

Some results are limits rather than exact numbers.

Broadly, the IC50 is the concentration that gives 50% inhibition. As for `O=C(NNC(=O)[C@H]1CC[C@H](CNS(=O)(=O)c2ccc(Br)cc2)CC1)c1cccs1`, the half-maximal inhibitory concentration (IC50) in assay [1] was above 10000 nM; in assay [2], 7.7 nM.

`O=C(NNC(=O)[C@H]1CC[C@H](CNS(=O)(=O)c2ccc(Br)cc2)CC1)c1cc2ccccc2s1`: the 50% inhibitory concentration (IC50) is above 10000 nM in assay [1] and 28.4 nM in assay [2].

Consider `CC(C)c1cc(C(C)C)c(S(=O)(=O)NC[C@H]2CC[C@H](C(=O)NNC(=O)c3cccs3)CC2)c(C(C)C)c1`, for which the IC50 in assay [1] is above 10000 nM; in assay [2], 47.7 nM.

Turning to `O=C(NNC(=O)[C@H]1CC[C@H](CNS(=O)(=O)c2ccccc2)CC1)c1cc2ccccc2s1`, the concentration for half-maximal inhibition (IC50) in assay [1] is above 10000 nM; in assay [2], 175 nM.

Regarding `Cc1ccc(S(=O)(=O)NC[C@H]2CC[C@H](C(=O)NNC(=O)c3cccs3)CC2)cc1`, the IC50 in assay [1] is above 10000 nM; in assay [2], 20.4 nM.

As for `CC(C)c1cc(C(C)C)c(S(=O)(=O)NC[C@H]2CC[C@H](C(=O)NNC(=O)c3cc4ccccc4s3)CC2)c(C(C)C)c1`, the concentration for half-maximal inhibition (IC50) in assay [1] is above 10000 nM; in assay [2], 142 nM.

Regarding `O=C(NNC(=O)[C@H]1CC[C@H](CNS(=O)(=O)c2cccs2)CC1)c1cc2ccccc2s1`, the half-maximal inhibitory concentration (IC50) in assay [1] was above 10000 nM; in assay [2], 11.5 nM.

Turning to `O=C(NNC(=O)[C@H]1CC[C@H](CNS(=O)(=O)c2cccs2)CC1)c1cccs1`, the concentration for half-maximal inhibition (IC50) is above 10000 nM in assay [1] and 12.5 nM in assay [2].

On to `O=C(NNC(=O)[C@H]1CC[C@H](CNS(=O)(=O)c2cccc3cccnc23)CC1)c1cccs1`, for which the half-inhibitory concentration (IC50) in assay [1] is above 10000 nM; in assay [2] it was 147 nM.

`Cc1ccc(S(=O)(=O)NC[C@H]2CC[C@H](C(=O)NNC(=O)c3cc4ccccc4s3)CC2)cc1`: the results for the IC50 in assay [1] and in assay [2] were above 10000 nM and 42.9 nM, respectively.

Turning to `O=C(NNC(=O)[C@H]1CC[C@H](CNS(=O)(=O)c2cccc3cccnc23)CC1)c1cc2ccccc2s1`, the results for the IC50 in assay [1] and in assay [2] were above 10000 nM and 92.2 nM, respectively.

`O=C(NNC(=O)[C@H]1CC[C@H](CNS(=O)(=O)c2ccccc2)CC1)c1cccs1`: the concentration for half-maximal inhibition (IC50) is above 10000 nM in assay [1] and 32.2 nM in assay [2].

Turning to `O=C(NNC(=O)[C@H]1CC[C@H](CNS(=O)(=O)c2ccc(Cl)cc2)CC1)c1cccs1`, the IC50 was above 10000 nM in assay [1] and 48.4 nM in assay [2].

Regarding `O=C(NNC(=O)[C@H]1CC[C@H](CNS(=O)(=O)c2ccc(Cl)cc2)CC1)c1cc2ccccc2s1`, the half-maximal inhibitory concentration (IC50) is above 10000 nM in assay [1] and 279 nM in assay [2].

The values are drawn from ChEMBL document CHEMBL1147417, “Synthesis of new thiophene and benzo[b]thiophene hydrazide derivatives as human NPY Y(5) antagonists” (Bioorg Med Chem Lett, 2004).
